According to PubChem BioAssay (NCI):
Several values for one entry are separate records, joined by “and”; a condition that tells them apart may be missing. Identical values can stand only once.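 Method: 48-hour compound exposure of cells in 96-well plates, five concentrations, linear interpolation of endpoints. At the GI50, growth is halved. TGI denotes the concentration required for complete inhibition of growth.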

Key:
Test in all cases: inhibition of tumour cell growth, NCI panel, 48 h
COLO 205 colon = test system: COLO 205 colon
EKVX NSCLC = test system: EKVX NSCLC
HCC-2998 colon = test system: HCC-2998 colon
K-562 leukemia = test system: K-562 leukemia
OVCAR-5 ovarian = test system: OVCAR-5 ovarian
SF-539 CNS = test system: SF-539 CNS
SK-MEL-28 melanoma = test system: SK-MEL-28 melanoma
SW-620 colon = test system: SW-620 colon
RXF 393 renal = test system: RXF 393 renal
T-47D breast = test system: T-47D breast

Compound | TGI (COLO 205 colon) | TGI (EKVX NSCLC) | TGI (HCC-2998 colon) | TGI (K-562 leukemia) | TGI (OVCAR-5 ovarian) | TGI (SF-539 CNS) | TGI (SK-MEL-28 melanoma) | TGI (SW-620 colon) | GI50 (COLO 205 colon) [µM] | GI50 (EKVX NSCLC) [µM] | GI50 (HCC-2998 colon) [µM] | GI50 (K-562 leukemia) [µM] | GI50 (OVCAR-5 ovarian) [µM] | GI50 (RXF 393 renal) [µM] | TGI (RXF 393 renal) [µM] | GI50 (SF-539 CNS) [µM] | GI50 (SK-MEL-28 melanoma) [µM] | GI50 (SW-620 colon) [µM] | GI50 (T-47D breast) [µM] | TGI (T-47D breast) [µM]
COc1cc2nncc(Sc3cnnc4ccccc34)c2cc1OC | > 100 µM | > 100 µM | 32.9 µM | > 100 µM | 64.6 µM | 51.7 µM | 60.9 µM | 41.3 µM | – | – | – | – | – | – | – | – | – | – | – | –
CC(C)N(C(C)C)[PH+]1O[PH+](N(C(C)C)C(C)C)O[PH+](N(C(C)C)C(C)C)O[PH+](N(C(C)C)C(C)C)O[PH+](N(C(C)C)C(C)C)O1.[C-]#[O+].[C-]#[O+].[C-]#[O+].[C-]#[O+].[C-]#[O+].[C-]#[O+].[C-]#[O+].[Cr].[Cr] (stereo unspecified) | > 100 µM | > 100 µM | > 100 µM | > 100 µM | > 100 µM | > 100 µM | > 100 µM | > 100 µM | > 100 | > 100 | > 100 | > 100 | > 100 | > 100 | > 100 | > 100 | > 100 | > 100 | – | –
COC(=O)c1nc(NN)[nH]c(=O)c1CCCCCc1c(C(=O)OC)[nH]c(NN)cc1=O | > 100 µM | > 100 µM | > 100 µM | > 100 µM | > 100 µM | > 100 µM | > 100 µM | > 100 µM | – | – | – | – | – | – | > 100 | – | – | – | – | –
CC(C)c1cccc(C(C)C)c1NC(=O)C(=O)C(C(=O)c1ccccc1-c1ccccc1)C1OC(=O)c2ccccc21 (stereo unspecified) | 81.5 µM | – | 32.5 µM | 68.3 µM | 35.4 µM | 27.9 µM | 71.9 µM | 37.8 µM | – | – | – | – | – | – | 27 | – | – | – | – | –
Cc1nc2c(n1CC(C)(C)C)C(=O)c1ccccc1C2=O | > 100 µM | > 100 µM | > 100 µM | > 100 µM | – | > 100 µM | > 100 µM | > 100 µM | – | – | – | – | – | – | > 100 | – | – | – | – | –
N=C(N)SCc1cn2ccccc2n1 | > 100 µM | > 100 µM | > 100 µM | > 100 µM | > 100 µM | > 100 µM | > 100 µM | > 100 µM | – | – | – | – | – | – | – | – | – | – | – | –
C[C@]12CC[C@@H]3c4ccc(O)c([N+](=O)[O-])c4CC[C@H]3[C@@H]1CC[C@@H]2NS(=O)(=O)c1ccc(C(F)(F)F)cc1 | 9.4 µM | – | 4.02 µM | 5.84 µM | 3.72 µM | 3.39 µM | 3.66 µM | 4.78 µM | 3.05 | – | 2.05 | 2.02 | 1.81 | – | – | 1.77 | 1.99 | 2.04 | 2.45 | 7.22
COc1cc(C2c3cc4c(cc3[C@@H](Nc3ccc(N(C)C)cc3)[C@H]3COC(=O)C23)OCO4)cc(OC)c1O (stereo partly specified) | 8.04 µM and 18.9 µM | 9.57 µM and 9.64 µM | 3.89 µM and 8.71 µM | 75 µM and 36.8 µM | 6.21 µM and 16.2 µM | 1.62 µM and 2.41 µM | 14.9 µM and 28.2 µM | 14 µM and 16.5 µM | 3.51 | 2.37 | 2.36 | 2.41 | 1.96 | – | 4.33 | 0.572 | 12.1 | 1.92 | – | –
COc1cc(Nc2ccnc(N3CCN(c4ccnc5cc(Cl)ccc45)CC3)n2)cc(OC)c1 | – | – | > 100 µM | > 100 µM | > 100 µM | 3.17 µM | > 100 µM | > 27.8 µM | – | – | 2.8 | 0.432 | 2.41 | 1.86 | > 100 | 1.25 | 1.39 | 0.601 | – | –
